Numbers after ± are expanded uncertainties.
Test: molar heat capacity at constant pressure
Settings: 101.33 kPa, Crystal 3, relaxation calorimetry

[O-2].[O-2].[Ti+4] [titanium(IV) oxide]
Settings	molar heat capacity at constant pressure [J/K/mol]
0.5 K	0.000432 ± 3.8e-05
1 K	0.00103 ± 7e-05
1.5 K	0.00196 ± 0.00012
2 K	0.00337 ± 0.00019
2.01 K	0.00218 ± 0.00019
2.35 K	0.00327 ± 0.00019
2.47 K	0.00544 ± 0.00033
2.5 K	0.00541 ± 0.00031
2.88 K	0.00862 ± 0.00048
3 K	0.00821 ± 0.00046
3.5 K	0.0119 ± 0.0007
3.72 K	0.01489 ± 0.00081
4 K	0.0165 ± 0.0009
4.31 K	0.02048 ± 0.0011
4.5 K	0.0221 ± 0.0012
4.54 K	0.02277 ± 0.0012
4.77 K	0.02538 ± 0.0014
5 K	0.0288 ± 0.0016
5.03 K	0.02844 ± 0.0015
5.32 K	0.03402 ± 0.0018
5.5 K	0.0365 ± 0.002
5.56 K	0.03861 ± 0.0021
5.85 K	0.04314 ± 0.0023
6 K	0.0454 ± 0.0025
6.14 K	0.04818 ± 0.0026
6.46 K	0.05442 ± 0.0029
6.5 K	0.0553 ± 0.003
6.84 K	0.06161 ± 0.0033
7 K	0.0662 ± 0.0036
7.16 K	0.06852 ± 0.0037
7.5 K	0.0782 ± 0.0042
7.53 K	0.07958 ± 0.0043
7.93 K	0.08951 ± 0.0048
8 K	0.0911 ± 0.0049
8.34 K	0.1005 ± 0.0054
8.5 K	0.105 ± 0.006
8.78 K	0.1124 ± 0.006
9 K	0.12 ± 0.006
9.23 K	0.1263 ± 0.0068
9.5 K	0.135 ± 0.007
9.74 K	0.1441 ± 0.0077
10 K	0.152 ± 0.008
10.23 K	0.1603 ± 0.0086
10.79 K	0.1786 ± 0.0096
11 K	0.187 ± 0.01
11.34 K	0.2003 ± 0.011
11.93 K	0.2256 ± 0.012
12 K	0.227 ± 0.012
12.55 K	0.2505 ± 0.013
13 K	0.271 ± 0.015
13.2 K	0.2793 ± 0.015
13.91 K	0.3136 ± 0.017
14 K	0.318 ± 0.017
14.6 K	0.3493 ± 0.019
15 K	0.37 ± 0.02
15.37 K	0.3923 ± 0.021
16 K	0.428 ± 0.023
16.16 K	0.4371 ± 0.023
16.99 K	0.4905 ± 0.026
17 K	0.491 ± 0.026
17.87 K	0.5493 ± 0.029
18 K	0.559 ± 0.03
18.78 K	0.6158 ± 0.033
19 K	0.634 ± 0.034
19.77 K	0.6928 ± 0.037
20 K	0.714 ± 0.038
20.78 K	0.7811 ± 0.042
21.84 K	0.8773 ± 0.047
23.01 K	0.9887 ± 0.053
24.2 K	1.12 ± 0.06
25 K	1.21 ± 0.06
25.43 K	1.26 ± 0.07
26.78 K	1.42 ± 0.08
28.14 K	1.6 ± 0.09
29.6 K	1.8 ± 0.1
30 K	1.85 ± 0.1
31.12 K	2.01 ± 0.11
32.74 K	2.25 ± 0.12
34.45 K	2.52 ± 0.13
35 K	2.62 ± 0.14
36.24 K	2.82 ± 0.15
38.12 K	3.16 ± 0.17
40 K	3.52 ± 0.19
40.1 K	3.54 ± 0.19
42.19 K	3.95 ± 0.21
44.41 K	4.41 ± 0.24
45 K	4.54 ± 0.24
46.71 K	4.93 ± 0.26
49.16 K	5.48 ± 0.29
50 K	5.66 ± 0.3
51.71 K	6.07 ± 0.32
54.41 K	6.71 ± 0.36
55 K	6.87 ± 0.37
57.24 K	7.42 ± 0.4
60 K	8.12 ± 0.43
60.22 K	8.18 ± 0.44
63.37 K	8.97 ± 0.48
65 K	9.38 ± 0.5
66.7 K	9.78 ± 0.52
70 K	10.75 ± 0.57
70.19 K	10.75 ± 0.57
73.8 K	11.78 ± 0.63
75 K	12.2 ± 0.65
77.13 K	12.82 ± 0.68
80 K	13.67 ± 0.73
81.7 K	13.98 ± 0.75
85 K	15.16 ± 0.81
85.33 K	15.22 ± 0.81
89.74 K	16.6 ± 0.89
90 K	16.65 ± 0.89
94.38 K	17.97 ± 0.96
95 K	18.14 ± 0.97
99.29 K	19.28 ± 1
100 K	19.6 ± 1.1
104.43 K	20.84 ± 1.1
109.84 K	22.53 ± 1.2
110 K	22.48 ± 1.2
115.54 K	24.21 ± 1.3
120 K	25.26 ± 1.4
121.46 K	25.88 ± 1.4
128.44 K	27.05 ± 1.4
130 K	27.96 ± 1.5
134.65 K	29.35 ± 1.6
140 K	30.55 ± 1.6
141.61 K	31.35 ± 1.7
148.86 K	33.43 ± 1.8
150 K	33.04 ± 1.8
156.57 K	35.12 ± 1.9
160 K	35.43 ± 1.9
165.09 K	36.06 ± 1.9
170 K	37.72 ± 2
173.67 K	37.71 ± 2
180 K	39.89 ± 2.1
182.65 K	39.71 ± 2.1
190 K	41.95 ± 2.2
192.19 K	41.35 ± 2.2
200 K	43.91 ± 2.3
201.69 K	44.69 ± 2.4
210 K	45.75 ± 2.4
212.16 K	46.49 ± 2.5
220 K	47.49 ± 2.5
223.15 K	48.5 ± 2.6
230 K	49.13 ± 2.6
234.7 K	50.34 ± 2.7
240 K	50.66 ± 2.7
246.88 K	52.02 ± 2.8
250 K	52.11 ± 2.8
259.67 K	53.63 ± 2.9
260 K	53.46 ± 2.9
270 K	54.73 ± 2.9
273.07 K	55.28 ± 3
273.15 K	55.11 ± 2.9
280 K	55.92 ± 3
287.77 K	56.22 ± 3
290 K	57.04 ± 3
298.15 K	57.89 ± 3.1
300 K	58.08 ± 3.1
302.73 K	58.1 ± 3.1
305 K	58.58 ± 3.1

— the NIST ThermoML archive (doi:10.1016/j.jct.2015.09.018)
